Experimental data as given in US8435957B2, “Use of lignan compound for anti-wrinkle treatment” (Biocare Co., Ltd., priority 2007, dated 2013).

Columns and labels:
human normal fibroblasts = test: MTT assay, cell proliferation effect in fibroblasts; format: cell-based; settings: 48 h serum-free culture, untreated medium as control
Experimental: In order to examine a cell proliferation effect proving the effect of reducing skin wrinkles, an MTT assay (3-(4,5-dimethylthiazol-2-yl)-2,5-diphenyl tetrazolium bromide reduction method) was carried out using fibroblasts.
First, human normal fibroblasts were plated into a 96-well plate at a concentration of 2×10^5 cells/well and primarily cultured in 10% FBS (fetal bovine serum)-containing DMEM medium in conditions of 37° C. and 5% CO2 for 24 hours. After the primary culture, the cells were treated with varying concentrations of the inventive sample. Then, the medium was replaced with a serum-free medium, and the cells were secondarily cultured for 48 hours. After the secondary culture step, 100 μl of MTT solution was added to the medium. Then, the resulting solution was left to stand for 4 hours, and then the medium was removed. 100 μl of dimethyl sulfoxide solution was added to each well and stirred for 20 minutes, and then the absorbance of each well at 540 nm was measured with a microplate reader.
According to the method of Example 2, the cell proliferation effects of 75% methanol extract of the aril of nutmeg and fragrin A and austobailignan 7 which are isolated and purified thereof were measured. In the MTT assay, a culture medium not treated with the sample was used as a control group and measured for absorbance, and the analysis results are shown in Table 3 below.

[1] = tested on: matrix metalloproteinase-1 (MMP-1); test: Western blot of matrix metalloproteinase-1 (MMP-1) expression in fibroblasts radiated with UV light; format: cell-based, human; settings: for inhibition of expression of matrix metalloproteinase-1: UV 20 J/cm^2, given as 'higher than the negative control'; for expression of matrix metalloproteinase-1, result in words: 3, 5 and 10 μM, versus UV 20 J/cm^2 positive control, FIG. 3, FIG. 4; for inhibition at 3 µM / inhibition at 5 µM / inhibition at 10 µM: Homo sapiens, Fibroblast, light or radiation study, compared with UV 20 J/cm^2 treated positive control group, read-out: matrix metalloproteinase-1 (MMP-1) inhibitory activity effect
Experimental: Fibroblasts were cultured in a 60-mm dish at a concentration of 2×10^5 cells/ml to a confluence of about 85%. Before UV radiation, the medium was removed, and the cells were washed with PBS to remove a serum component therefrom, and then radiated with UV light at a dose of 20 J/cm^2. After the fibroblast cells were radiated with UV light, the cells were treated with each of the samples and cultured with serum free DMEM for 48 hours.
In order to measure the expression levels of matrix metalloproteinase-1 (MMP-1), Western blot was used, and the amount of total protein in the medium containing the fibroblasts cultured therein was quantified using the Bradford method.
The extracted protein was electrophoresed on 10% SDS-polyacrylamide gel, and then transferred to a nitrocellulose membrane. The membrane was blocked with 5% skim milk at room temperature for 1 hour in order to prevent it from being contaminated with other unknown proteins. Primary antibody to matrix metalloproteinase-1 was diluted in a blocking solution at a ratio of 1:1000 and allowed to react with the membrane at room temperature for 2 hours. After the primary antibody reaction, the membrane was washed three times with Tris-buffer saline Tween 20 (TBST) with shaking for 10 minutes each time. Secondary antibodies recognizing the primary antibodies to matrix metalloproteinase-1 was diluted in 5% skim milk at a ratio of 1:1000 and allowed to react with the membrane at room temperature for 1 hour. Then, the membrane was washed three times with tris-buffer saline Tween 20 with shaking for 10 minutes each time in the same manner as in the case of the primary antibody reaction, and then was developed by chemiluminescence.

[2] = tested on: hairless mouse (Skh; HR-1); test: In vivo anti-wrinkle effect, skin application, skin replica; settings: applied to skin: 50 μl of 6% (w/v) nutmeg extract or 20 mM macelignan; versus UV positive group; FIG. 7
Experimental: (§1) 6-week hairless mouse (Skh; HR-1) have a quarantine period for 1 week before experiment, and cared maintaining temperature with 23±3° C., relative humidity with 50±5° C., and 12 hours of day/night cycle (07:00-19:00/day time). They were fed with feed for mouse, and tap water. UV irradiations were performed 3 times per week in the same time, the amount of the UV irradiations were 50 mJ/cm^2 on 1st week, 100 mJ/cm^2 on 2nd week, 200 mJ/cm^2 on 3rd week, and 250 mJ/cm^2 on 4th and after 4th weeks. The groups were divided into 4 groups. Those were control, UV control, UV/nutmeg and UV/macelignan.
50 μl of 6% (w/v) of nutmeg extract and 20 mM macelignan solution were applied for the experiment. For the experiment, nutmeg extract and macelignan were disolved in ethanol:polyethylene glycol (7:3, v/v).
In FIG. 7, A is the normal group, B is the UV irradiated group, C is the nutmeg applying group, and D is the macelignan applying group.

[3] = tested on: hairless mouse (Skh; HR-1); test: In vivo anti-wrinkle effect, oral administration, skin replica; settings: oral: 200 mg/kg nutmeg or 20 mg/kg macelignan; versus UV positive group; FIG. 8
Experimental: as §1, with “UV/macelignan. 200 mg/kg of nutmeg and 20 mg/kg of macelignan were administered respectively by oral. For the experiment, nutmeg extract and macelignan were disolved in 0.25% CMC (carboxyl methyl celluose) solution.” for “UV/macelignan.”
In FIG. 8, A is the normal group, B is the UV irradiated group, C is the nutmeg administering group, and D is the macelignan administering group.

| SMILES | Proliferation effect (%) (human normal fibroblasts; 3 μg/ml) | Proliferation effect (%) (human normal fibroblasts; 5 μg/ml) | Proliferation effect (%) (human normal fibroblasts; 10 μg/ml) | inhibition of expression of matrix metalloproteinase-1 ([1]; 10 μM) [%] | expression of matrix metalloproteinase-1, result in words [1] | inhibition at 3 µM [1] [%] | inhibition at 5 µM [1] [%] | inhibition at 10 µM ([1]; 10 μM) [%] | effect on reducing wrinkle (skin replica), result in words [2] | effect on inhibiting wrinkle (skin replica), result in words [3] | inhibition of expression of matrix metalloproteinase-1 ([1]; 10 μg/ml) [%] |
| --- | --- | --- | --- | --- | --- | --- | --- | --- | --- | --- | --- |
| COc1cc([C@@H]2OC(c3ccc4c(c3)OCO4)[C@@H](C)[C@@H]2C)ccc1O (some centres unmarked) [austobailignan 7, austrobailignan-7] | 104 | 105 | 110 | 65 | inhibited the expression of matrix metalloproteinase-1 with dose-dependent manners | – | – | – | – | – | – |
| C=CCc1cc(OC)c(OC(C)Cc2ccc(O)c(OC)c2)c(OC)c1 (centres unmarked) [fragrin A, 2-(4-allyl-2,6-dimethoxyphenoxy)-1-(4-hydroxy-3-methoxyphenyl)-propane] | 101 | 104 | 108 | 65 | inhibited the expression of matrix metalloproteinase-1 with dose-dependent manners | – | – | – | – | – | – |
| C/C=C/c1cc(OC)c2c(c1)[C@@H](C)C(c1ccc3c(c1)OCO3)O2 (some centres unmarked) [licarin E] | – | – | – | – | – | 35 | 47 | 73 | – | – | – |
| COc1cc(C[C@H](C)[C@H](C)Cc2ccc3c(c2)OCO3)ccc1O [macelignan] | – | – | – | – | – | 31 | 42 | 63 | inhibited wrinkle | inhibited wrinkle | – |
| O=C1O[C@H]([C@@H](O)CO)C(O)=C1O [vitamin-C, reference compound] | – | – | – | 20 | – | – | – | – | – | – | 20 |
